Reference: PubChem BioAssay AID743070 (Broad Institute, 2013)
The source made the active and inactive calls. How the calls were made is not given here.

Experiment: growth inhibition of wild-type Mtb, BioA inhibitor project, biotin-free medium, plate reader, dry powder (AID 743070)
Settings: M. tuberculosis wild type growth; for IC90: measured here: Mtb growth IC90

SMILES | IC50 | IC90
O=C(Nc1ccc2[nH]ccc2c1)N1CCN(c2ccccc2)CC1 | 7 µM | > 50 µM
Cc1ccc(/C=C(\CCC(=O)O)c2nc3ccccc3s2)cc1 | 2 µM | 4.8 µM
O=C(Nc1ccc2snnc2c1)N1CCOCC1 | > 50 µM (inactive) | > 50 µM
CC(=O)c1ccc(N2CCN(C(=O)c3cccc(F)c3)CC2)cc1 | > 50 µM (inactive) | > 50 µM
CCOC(=O)N1CCN(C(=O)Nc2ccc3snnc3c2)CC1 | 14.6 µM | > 50 µM
CCc1ccc(C(=O)N2CCN(Cc3ccc4c(c3)OCO4)CC2)cc1 | 8.5 µM | > 50 µM
CC(=O)c1ccc(N2CCN(C(=O)c3ccc(Cl)cc3)CC2)cc1 | > 50 µM (inactive) | > 50 µM
COC(=O)c1c(C(=O)OC)c(-c2cccc(F)c2)n2c1CS(=O)C2 (stereo not given) | 15.9 µM | > 50 µM
CC(=O)c1ccc(N2CCN(C(=O)c3ccc4c(c3)OCO4)CC2)cc1 | 5 µM | 26.3 µM
COc1cccc(NC(=O)CCC2CCN(C(=O)c3ccc(C(C)=O)s3)CC2)c1 | 10.7 µM | > 50 µM
COc1ccc(N2CCN(C(=O)c3ccc4c(c3)OCO4)CC2)cc1 | 9.7 µM | > 50 µM
Cc1ccc(NC(=O)N2CCN(c3ccccc3)CC2)cc1 | 10.3 µM | > 50 µM
O=C(Nc1ccc(Cl)c(-c2nc3ccccc3[nH]2)c1)c1cccnc1 | 7.4 µM | 46 µM
Cc1ccccc1/C=C(\CCC(=O)O)c1nc2ccccc2s1 | 8.3 µM | 44.1 µM
O=C(Nc1ccc(F)cc1)N1CCN(c2ccccc2)CC1 | 14.1 µM | > 50 µM
O=C(Nc1cccnc1)c1cc2nc(-c3cccs3)cc(C(F)(F)F)n2n1 | > 50 µM (inactive) | > 50 µM
O=C(O)CC/C(=C\c1ccc([N+](=O)[O-])cc1)c1nc2ccccc2s1 | 8.9 µM | 34.4 µM
Cc1ccc(/C=C(\CC(=O)O)c2nc3ccccc3s2)cc1[N+](=O)[O-] | 6.8 µM | > 50 µM
O=C(c1ccc2c(c1)OCO2)N1CCN(c2ccccc2)CC1 | 23.2 µM | > 50 µM
CC(=O)c1ccc(N2CCN(Cc3ccc4c(c3)OCO4)CC2)cc1 | 31.2 µM | > 50 µM

SMILES | IC50 | IC90
O=C(Nc1cccnc1)N1CCN(c2ccccc2)CC1 | > 50 µM (inactive) | > 50 µM
CC(=O)c1ccc(N2CCN(C(=O)c3ccc4ncsc4c3)CC2)cc1 | 22.2 µM | > 50 µM
O=C(Nc1ccc(Cl)cc1)c1cc2nc(C3CC3)cc(C(F)(F)F)n2n1 | 50 µM | > 50 µM
O=C(Nc1ccccc1)N1CCN(c2ccccc2)CC1 | 6.9 µM | > 50 µM
Cc1cc(C)n2nc(C(=O)Nc3cccnc3)cc2n1 | 21.8 µM | > 50 µM
CC(=O)c1ccc(N2CCN(C(=O)c3ccccc3)CC2)cc1 | > 50 µM (inactive) | > 50 µM
Cc1cccc(/C=C(\CCC(=O)O)c2nc3ccccc3s2)c1 | 3.1 µM | 11 µM
O=C(Nc1ccncc1)c1cc2nc(C3CC3)cc(C(F)F)n2n1 | 50 µM | > 50 µM
COc1ccc(NC(=O)N2CCN(c3ccccc3)CC2)cc1 | 50 µM | > 50 µM
COc1cc(/C=C/C(=O)Nc2cccnc2)cc(OC)c1OC | 13.7 µM | > 50 µM
O=C(COc1ccc2ccc(=O)oc2c1)N1CCN(c2ccc(F)cc2)CC1 | 50 µM | > 50 µM
Cc1nc2ccc(NC(=O)N3CCN(c4ccccc4)CC3)cc2s1 | 2.1 µM | 6.8 µM
COc1ccc(-c2cc(C(F)(F)F)n3nc(C(=O)Nc4cccnc4)cc3n2)cc1 | 2.7 µM | > 50 µM
CC(=O)c1ccc(N2CCN(C(=O)c3ccc(Br)cc3)CC2)c(F)c1 | 10.3 µM | > 50 µM
O=C(Nc1ccc2snnc2c1)N1CCCCC1 | 50 µM | > 50 µM
Cc1cc(C)n2nc(C(=O)Nc3cccnc3)nc2n1 | > 50 µM (inactive) | > 50 µM
Cc1nc2cc(NC(=O)N3CCN(c4ccccc4)CC3)ccc2o1 | 50 µM | > 50 µM
O=C(O)CC/C(=C\c1ccccc1[N+](=O)[O-])c1nc2ccccc2s1 | 50 µM | > 50 µM
CC(=O)c1ccc(N2CCN(C(=O)c3ccc(F)cc3)CC2)cc1 | 50 µM | > 50 µM
O=C(Nc1ccc2snnc2c1)N1CCN(c2ccccc2)CC1 | 3.2 µM | 17.9 µM

SMILES | IC50 | IC90
O=C(c1ccc2c(c1)OCO2)N1CCN(c2ccc(Cl)cc2)CC1 | 11.2 µM | 49.2 µM
CC(=O)c1ccc(N2CCN(C(=O)c3cccnc3)CC2)cc1 | > 50 µM (inactive) | > 50 µM
O=C(Nc1cccc(F)c1)N1CCN(c2ccccc2)CC1 | 8.2 µM | > 50 µM
CC(=O)c1ccc(N2CCN(C(=O)c3ccc(C)cc3)CC2)cc1 | > 50 µM (inactive) | > 50 µM
CCN(CC)c1ccc2cc(C(=O)c3cccs3)c(=O)oc2c1 | 3.8 µM | 20.7 µM
CC(C)(C)c1ccc(C(=O)N2CCN(c3ccc4c(c3)OCO4)CC2)cc1 | 14.9 µM | > 50 µM
CC(=O)c1ccc(N2CCN(C(=O)c3cccc(Cl)c3)CC2)cc1 | 7.5 µM | 27.5 µM
O=C(Nc1cccnc1)c1cnn2c(C(F)F)cc(C3CC3)nc12 | > 50 µM (inactive) | > 50 µM
O=C(Nc1cccc(Cl)c1)N1CCN(c2ccccc2)CC1 | 5 µM | > 50 µM
O=C(c1ccc2c(c1)OCO2)N1CCN(Cc2ccccc2)CC1 | > 50 µM (inactive) | > 50 µM
CC(=O)c1ccc(N2CCN(C(=O)c3ccc4c(c3)OCCO4)CC2)cc1 | > 50 µM (inactive) | > 50 µM
Cc1ccc(/C=C(\CCC(=O)O)c2nc3ccccc3s2)cc1[N+](=O)[O-] | 1.1 µM | 2.5 µM
CCc1ccc(N2CCN(C(=O)c3ccc4c(c3)OCO4)CC2)cc1 | 9.6 µM | > 50 µM
COc1ccc(C(=O)N2CCN(c3ccc(C(C)=O)cc3)CC2)cc1 | > 50 µM (inactive) | > 50 µM
COc1cccc(C(=O)N2CCN(c3ccc(C(C)=O)cc3)CC2)c1 | 50 µM | > 50 µM
O=C(Nc1cccnc1)c1cnn2c(C(F)(F)F)cc(-c3ccccc3)nc12 | > 50 µM (inactive) | > 50 µM
Cc1ccc(/C=C(\CCCC(=O)O)c2nc3ccccc3s2)cc1[N+](=O)[O-] | 8.4 µM | > 63.3 µM
Cc1ccc(-c2cc(C(F)(F)F)n3nc(C(=O)Nc4cccnc4)cc3n2)cc1 | > 50 µM (inactive) | > 50 µM
O=C(c1ccc2c(c1)OCO2)N1CCN(c2ccc(F)cc2)CC1 | 22 µM | > 50 µM
COc1cccc(NC(=O)N2CCN(c3ccccc3)CC2)c1 | 50 µM | > 50 µM
